{"source": "patent US20230219957A1", "about": "“SMALL MOLECULE CB002-ANALOGES RESTORE THE P53 PATHWAY AND TARGET S-PHASE CHECKPOINT” (Brown University, priority 2020, published 2023)", "format_in_all_cases": "cell-based, human", "key": {"SW480 cells [1]": {"system": "SW480 cells", "test": "Microarray transcriptomic analysis with ingenuity pathway analysis", "details": "twelve hours treatment", "procedure": "Microarray analysis. SW480 cells were seeded at a density of 1×10^6 in 10 cm dishes. After being adhered, the cells were treated with dimethyl sulfoxide vehicle control or CB002-analog #4. Floating cells were collected, and adherent cells were trypsinized at twelve hours of treatment. The cells were pelleted. According to manufacturer instructions, RNA was isolated from the cells using a Quick-RNA™ MiniPrep (#R1055, Zymo Research Irvine, Calif., USA). RNA quality was tested using an Agilent Bioanalyzer RNA kit. When the RNA quality was enough, RNA was amplified and labeled using the low RNA input linear amplification kit commercially available from Agilent Technologies, Santa Clara, Calif., USA. Labeled cDNA was hybridized onto Affymetrix Human Gene 2.0-ST array. Significant changes in gene expression were determined at 1.5-fold either up or down in dimethyl sulfoxide vehicle control versus CB002-analog #4."}, "SW480 tumor cells": {"system": "SW480 tumor cells", "test": "Apoptosis markers (cleaved PARP immunoblot, Cyt-C immunofluorescence)", "procedure": "Knockdown expression of p73, DR5, ATG5, or FADD using siRNA. A total of 1×10^5 cells/well were plated per well in a 12-well plate in medium with 10% FBS without antibiotic. Forward transfection of p73 siRNA (s14319, Ambion®, Ambion Inc., Austin, Tex., USA), DR5 (sc-40237, Santa Cruz Biotechnology), atg5 (137766, Ambion®, Ambion Inc., Austin, Tex., USA), or FADD (S16706, Ambion®, Ambion Inc., Austin, Tex., USA) was performed using the Lipofectamine® RNAiMAX Transfection Reagent (Life Technologies) and incubated for forty-eight hours before treatment, e.g., before drug treatments.\nImmunoblotting (additional method). After treatment, floating cells were collected, and adherent cells were trypsinized, washed with phosphate-buffered saline, and lysed with RIPA buffer (Sigma-Aldrich, St. Louis, Mo., USA) for thirty minutes to one hour at 4° C. Protein lysates were pelleted. The supernatant was collected. Total protein per sample was determined using a Pierce™ BCA Protein Assay Kit (Thermo Fisher Scientific, Waltham, Mass., USA). Proteins were denatured using 1× NuPAGE® LDS sample buffer (Thermo Fisher Scientific, Waltham, Mass., USA) and reduced with 2-mercaptoethanol (Sigma-Aldrich, St. Louis, Mo., USA). Protein lysates were boiled for fifteen min at 95° C. After protein normalization, samples were loaded into NuPAGE™ Novex™ 4-12% Bis-Tris Protein Gels (Thermo Fisher Scientific, Waltham, Mass., USA). Gel electrophoresis was performed with NuPAGE™ MES SDS Running Buffer. […] Signal was detected using a chemiluminescent detection kit, followed by autoradiography. […]\nImmunohistochemistry. […] Organoid viability imaging was determined by CellTrace™ Calcein Green (#C34852, Thermo Fisher Scientific, Waltham, Mass., USA), Ethidium Homodimer-1 (#E1169, Thermo Fisher Scientific, Waltham, Mass., USA), Ki67 incubated at 37° C. for one hour then washed with phosphate-buffered saline and imaged. […]"}, "SW480 cells [2]": {"system": "SW480 cells", "test": "Clonogenic (colony formation) assay", "details": "SW480, versus CB002", "procedure": "Colony formation assay. Cells were seeded in 6-well plates at a density of 500 cells per well. Cells were treated with CB002 small molecules for twenty-four hours. Then, cells were cultured in complete drug-free media for fifteen days. During the fifteen days, the media was changed every two-three days. At the end of the two weeks, the media was removed. Wells were washed twice with Dulbecco's phosphate-buffered saline (PBS). The colonies were fixed and stained with 10% methanol and 0.25% crystal violet (Sigma-Aldrich, St. Louis, Mo., USA) for thirty minutes. Wells were then carefully washed with distilled, deionized water and allowed to dry."}, "[3]": {"system": "isogenic HCT116 cell line panel", "test": "Cell-Titer glow cytotoxicity, potency comparison across the panel", "details": "IC50 values, independently of HCT116 p53-status", "procedure": "CellTiter-Glo® luminescent cell viability assay. Cells were seeded in 96-well plates at a density of 5×10^3 cells per well. 20 μL of CellTiter-Glo® Reagent was added directly to the wells, following the manufacturers protocol. The bioluminescence signal was determined using an IVIS imaging system, optionally at a period of 48-72 hours after treatment.\nCB002-analog #4 is a potent anti-tumor agent in vitro and in vivo. The inventors focused on lead CB002-analog #4 and investigated its therapeutic index in vitro and in vivo. The inventors treated an isogenic HCT116 cell line panel with 100 μM CB002 or 25 μM CB002-analog #4 and established IC50 values by the Cell-Titer glow cytotoxicity assay. Across this panel, CB002-analog #4 has a 20-fold to 30-fold range in IC50 values, independently of the HCT116 p53-status."}}, "data": [{"smiles": "Cn1c(=O)c2[nH]c(Nc3cccc(C(F)(F)F)c3)nc2n(C)c1=O", "note": "[CB002-analog #4]", "values": [{"measurement": "p53 target genes Noxa, Puma, and DR5 expression", "setting": "SW480 cells [1]", "result": "upregulated"}, {"measurement": "p53 upstream regulator activation z-score (IPA)", "setting": "SW480 cells [1]", "result": 3.3}, {"measurement": "cleaved-PARP", "setting": "SW480 tumor cells; SW480", "result": "increases cleaved-PARP"}, {"measurement": "cytochrome C release from the mitochondria to the cytosol", "setting": "SW480 tumor cells; SW480, forty-eight hours", "result": "cytochrome C release from the mitochondria to the cytosol"}, {"measurement": "PARP cleavage under p73 knockdown", "setting": "SW480 tumor cells; SW480, p73 siRNA", "result": "PARP cleavage occurred despite effective p73 knockdown"}, {"measurement": "cytotoxicity by clonogenic assay", "setting": "SW480 cells [2]", "result": "more cytotoxic in vitro than CB002"}, {"measurement": "potency relative to CB002", "setting": "[3]", "result": "20-30 times"}]}]}
